Results on one compound are retold here after patent US20060014709A1, “Drug or cosmetic” (priority 2002, published 2006).

Read-outs that look alike come from different tables or passages of the source.

The test system of the assay is human peripheral blood T lymphocytes / cytotoxic macrophages. Type of assay: cell-based. From the text:
Another embodiment of the method for screening a compound which can prevent, mitigate or treat renal glomerular lesions, lesions of pancreatic islets of Langerhans or epidermal lesions include a method for screening a compound in the presence of which a number of produced cytotoxic macrophages is decreased, comprising the steps of (i) inducing cytotoxic macrophages by cultivating human peripheral blood mononuclear cells in RPMI 1640 medium in the presence of lipopolysaccharide and human AB type serum; (ii) at the same time, inducing unfractionated T lymphocytes by cultivating human peripheral blood unfractionated T lymphocytes with or without lipopolysaccharide in the presence of the test compound; (iii) bringing the cytotoxic macrophages obtained in (i) into contact with monolayered autologous erythrocytes in the presence of the unfractionated T lymphocytes obtained in (ii), and measuring a number of produced cytotoxic macrophages; and (iv) comparing with the number of generated cytotoxic macrophages in the absence of the test compound (for convenience, referred to as screening method C).
(a) Induction of cytotoxic macrophages is described below. To 2×10^6PBMC floated on RPMI1640 medium containing human normal serum of type AB, 2 mM of L-glutamine and 5 μg/mL of gentamicin, LPS is added so as to make a concentration 80 μg/mL, and the PBMC is cultivated for 6 days at 37° C. under 5% CO2-95% air to induce cytotoxic macrophages. The PBMC is obtained similarly as in the screening method A. The induced cytotoxic macrophages are recovered from the medium. In the recovering, a known method may be used, including a method of collecting adhered materials with a rubber-policeman (rubber spatula). Then, the recovered cytotoxic macrophages may be washed. In washing, a Hanks solution with about 5 μg/mL of gentamicin is preferably used.
(b) Induction of unfractionated T lymphocytes is described below. First, human peripheral blood unfractionated T lymphocytes is separated as described below. As described in the screening method A, to a PBMC fraction separated by a specific gravity centrifugal method was added sheep erythrocytes treated with neuraminidase and reacted for 20 minutes at 37° C. This solution is gently added to a tube in which Percolls of discontinuous specific gravities are layered, and centrifuged at 400×g for 20 minutes at room temperature. In the layered Percolls of discontinuous specific gravities, fractions of rosetted T lymphocytes and monocytes floating on a layer of not less than d=1.091 are collected respectively. To the fraction of rosetted T lymphocytes is added ammonium chloride to hemolyze the sheep erythrocyte and a fraction of T lymphocytes is obtained. The fraction of monocytes obtained at the same time is washed. […]

As for `O=C1CC[C@@](Sc2ccc(Cl)cc2)(C(=O)OCc2ccccc2)O1` (stereo in doubt) [compound (III-1), 2-(4-chlorophenyl)thio-5-oxo-2-tetrahydrofurancarboxylic acid benzyl ester], the “induction of regulatory CD2^−CD4^+ T lymphocytes (in words)” value is “induces regulatory CD2^−CD4^+ T lymphocytes”. Besides, the “Inhibition rate (%) of SPFC positive cells versus T lymphocytes treated with solvent” value (shortened to “Inhibition rate (%)”) (T lymphocytes treated with 0.1 μg/ml of compound) was 69.2%. Also, the “Inhibition rate (%)” value (T lymphocytes treated with 1 μg/ml of compound) was 53.8%. Under “T lymphocytes treated with 10 μg/ml of compound”, the “Inhibition rate (%)” value is given as 92.3%.
